Among the data in patent US7169931B2, “Cyclic compounds exhibiting thrombopoietin receptor agonism” (Shionogi & Co., Ltd., priority 2001, dated 2007) are EC50 values, retold here.

For the experiment, the target named is T1, human TPO receptor (Homo sapiens, UniProt P40238).
T1 construct: expressed in transfected cells; host or cells: BaF-B03 (murine IL-3 dependent cell line)
T1 sequence (P40238 26-635): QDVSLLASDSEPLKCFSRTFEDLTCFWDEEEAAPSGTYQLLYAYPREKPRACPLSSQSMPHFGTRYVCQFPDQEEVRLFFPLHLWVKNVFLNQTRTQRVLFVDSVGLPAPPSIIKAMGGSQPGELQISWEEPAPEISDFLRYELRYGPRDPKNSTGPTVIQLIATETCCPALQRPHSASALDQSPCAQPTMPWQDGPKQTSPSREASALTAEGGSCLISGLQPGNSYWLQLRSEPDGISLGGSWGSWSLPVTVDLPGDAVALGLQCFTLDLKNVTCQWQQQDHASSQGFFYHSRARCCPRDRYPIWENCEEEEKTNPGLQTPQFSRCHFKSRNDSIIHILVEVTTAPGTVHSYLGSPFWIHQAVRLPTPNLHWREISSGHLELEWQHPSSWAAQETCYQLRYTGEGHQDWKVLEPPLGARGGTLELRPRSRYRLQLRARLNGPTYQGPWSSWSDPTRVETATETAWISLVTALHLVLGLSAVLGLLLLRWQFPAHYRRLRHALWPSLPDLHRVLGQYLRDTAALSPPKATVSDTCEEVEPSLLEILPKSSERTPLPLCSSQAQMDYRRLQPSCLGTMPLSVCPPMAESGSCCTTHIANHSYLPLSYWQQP
Nature of the experiment: Thrombopoietic activity: proliferation of TPO dependent BaF/hTPOR cells (WST-1). The experiment is classed as cell-based. The note with it: BaF/hTPOR cell line (BaF-B03 with human TPO receptor), without IL-3; 20 hours incubation + 4 hours WST-1, absorbance 450 nm; ED50 = half concentration of the concentration showing maximum thrombopoietic activity. On the procedure:
BAF/hTPOR cells were maintained in RPMI medium and WEHI-3B conditioned medium as a source of murine interleukin-3 (IL-3). These cells were washed and resuspended in RPMI medium without a source of murine IL-3 and seeded into each well of 96-well microtiter plates at a density of 5×10^4 cells per well in the absence or presence of various concentration of hTPO or the present compound. After incubation at 37° C. for 20 hours in the 5% CO2 incubator, 10% WST-1 reagent (Takara Biomedicals, Japan) was added to each wells and the cells were further incubated for 4 hours. The absorbance at 450 nm was measured.
(Tetrazolium assays rely on reduction of a dye to a coloured formazan, in cell work by metabolically active cells.)
For `O=C(Nc1nc(-c2ccc(Cl)c(Cl)c2)cs1)c1ccc2c(c1)CCC(C(=O)O)C2` (centres unmarked) [Compound A-1], the EC50 is 40 nM. Next, `O=C(O)c1ccc2c(c1)CCC(C(=O)Nc1nc(-c3ccc(Cl)c(Cl)c3)cs1)C2` (centres unmarked) [Compound A-2]: 376 nM; `O=C(Nc1nc(-c2ccc(Cl)c(Cl)c2)cs1)c1ccc2c(c1)CC(C(=O)O)CC2` (centres unmarked) [Compound A-3]: 965 nM; `O=C(Nc1nc(-c2ccc(Cl)c(Cl)c2)cs1)c1ccc2c(c1)CCC(F)(C(=O)O)C2` (centres unmarked) [Compound A-4]: 148 nM. Turning to `COC(=O)C1(F)CCc2cc(C(=O)Nc3nc(-c4ccc(Cl)c(Cl)c4)cs3)ccc2C1` (centres unmarked) [Compound A-5], the concentration for a half-maximal effect (EC50) was 165 nM. In the case of `O=C(Nc1nc(-c2ccc(Cl)c(Cl)c2)cs1)c1ccc2c(c1)C(=O)CC(C(=O)O)C2` (centres unmarked) [Compound A-6], the EC50 amounted to 210 nM. Regarding `COC(=O)C1CC(=O)c2cc(C(=O)Nc3nc(-c4ccc(Cl)c(Cl)c4)cs3)ccc2C1` (centres unmarked) [Compound A-7], the EC50 came to 250 nM. Regarding `COC(=O)[C@@H]1Cc2ccc(C(=O)Nc3nc(-c4ccc(Cl)c(Cl)c4)cs3)cc2[C@H](O)C1` [Compound A-8], the EC50 was determined as 2280 nM.

As for `O=C(Nc1nc(-c2ccc(Cl)c(Cl)c2)cs1)c1ccc2c(c1)C(F)CC(C(=O)O)C2` (centres unmarked) [Compound A-9], the EC50 turned out to be 306 nM.

Consider `COC(=O)C1Cc2ccc(C(=O)Nc3nc(-c4ccc(Cl)c(Cl)c4)cs3)cc2C(=O)C1F` (centres unmarked) [Compound A-11], for which the EC50 amounted to 552 nM. As for `COC(=O)CC1Cc2ccc(C(=O)Nc3nc(-c4ccc(Cl)c(Cl)c4)cs3)cc2C1=O` (centres unmarked) [Compound A-13], the figure is 270 nM; as for `O=C(O)CC1Cc2ccc(C(=O)Nc3nc(-c4ccc(Cl)c(Cl)c4)cs3)cc2C1=O` (centres unmarked) [Compound A-14], 230 nM; as for `COC(=O)CC1Cc2ccc(C(=O)Nc3nc(-c4ccc(Cl)c(Cl)c4)cs3)cc2C1` (centres unmarked) [Compound A-15], 240 nM.

Turning to `O=C(O)CC1Cc2ccc(C(=O)Nc3nc(-c4ccc(Cl)c(Cl)c4)cs3)cc2C1` (centres unmarked) [Compound A-16], the EC50 was 230 nM.

Take `O=C(O)c1ccc2cc(C(=O)Nc3nc(-c4ccc(Cl)c(Cl)c4)cs3)ccc2c1` [Compound A-17]: the EC50 worked out at 23 nM.

For the compound `COC(=O)c1ccc2cc(C(=O)Nc3nc(-c4ccc(Cl)c(Cl)c4)cs3)ccc2c1` [Compound A-18], the EC50 came out at 43 nM. As for `COC(=O)c1ccc2cc(C(=O)Nc3nc(-c4ccc(Cl)c(Cl)c4)cs3)ccc2n1` [Compound A-22], the EC50 is 190 nM. For the compound `O=C(Nc1nc(-c2cccc(C(F)(F)F)c2F)cs1)c1ccc2c(c1)CCC(C(=O)O)C2` (centres unmarked) [Compound B-1], the EC50 is 69 nM.

For the compound `O=C(Nc1nc(-c2ccc3c(c2)CCCC3)cs1)c1ccc2c(c1)CCC(C(=O)O)C2` (centres unmarked) [Compound B-2], the EC50 stood at 214 nM.

Consider `CCCCc1cccc(-c2csc(NC(=O)c3ccc4c(c3)CCC(C(=O)O)C4)n2)c1` (centres unmarked) [Compound B-3], for which the EC50 worked out at 219 nM.

Consider `O=C(Nc1nc(-c2ccc(C(F)(F)F)cc2F)cs1)c1ccc2c(c1)CCC(C(=O)O)C2` (centres unmarked) [Compound B-4], for which the EC50 is 110 nM. Next, `CCCCCc1cccc(-c2csc(NC(=O)c3ccc4c(c3)CCC(C(=O)O)C4)n2)c1F` (centres unmarked) [Compound B-5]: 56 nM; `CCCCCc1cc(-c2csc(NC(=O)c3ccc4c(c3)CCC(C(=O)O)C4)n2)ccc1F` (centres unmarked) [Compound B-6]: 66 nM. Take `O=C(Nc1nc(-c2ccc(F)c(F)c2)cs1)c1ccc2c(c1)CCC(C(=O)O)C2` (centres unmarked) [Compound B-7]: the EC50 came out at 280 nM. For `O=C(Nc1nc(-c2cccc(C(F)(F)F)c2)cs1)c1ccc2c(c1)CCC(C(=O)O)C2` (centres unmarked) [Compound B-8], the EC50 came out at 120 nM. As for `O=C(Nc1nc(-c2cccc(F)c2F)cs1)c1ccc2c(c1)CCC(C(=O)O)C2` (centres unmarked) [Compound B-9], the EC50 amounted to 28.1 nM. Take `O=C(Nc1nc(-c2ccc(Cl)c(Cl)c2)c(F)s1)c1ccc2c(c1)CCC(C(=O)O)C2` (centres unmarked) [Compound B-10]: the concentration for a half-maximal effect (EC50) was determined as 48 nM. As for `CC(C)c1cccc(-c2csc(NC(=O)c3ccc4c(c3)CCC(C(=O)O)C4)n2)c1F` (centres unmarked) [Compound B-11], the figure is 66 nM; as for `O=C(Nc1nc(-c2cccc(C3CCCCC3)c2F)cs1)c1ccc2c(c1)CCC(C(=O)O)C2` (centres unmarked) [Compound B-12], 74 nM. Next, `O=C(Nc1nc(-c2cccc(C3CCOCC3)c2F)cs1)c1ccc2c(c1)CCC(C(=O)O)C2` (centres unmarked) [Compound B-13]: 342 nM.

Take `O=C(Nc1nc(-c2cccc(OC(F)(F)F)c2F)cs1)c1ccc2c(c1)CCC(C(=O)O)C2` (centres unmarked) [Compound B-14]: the EC50 was 42 nM. `O=C(Nc1nc(-c2cccc(CCc3ccccc3)c2F)cs1)c1ccc2c(c1)CCC(C(=O)O)C2` (centres unmarked) [Compound B-15]: the EC50 was 59 nM.

On to `CCCCOc1cccc(-c2csc(NC(=O)c3ccc4c(c3)CCC(C(=O)O)C4)n2)c1F` (centres unmarked) [Compound B-16], for which the EC50 came out at 98 nM. As for `Cc1sc(NC(=O)c2ccc3c(c2)CCC(C(=O)O)C3)nc1-c1cccc(C(F)(F)F)c1` (centres unmarked) [Compound B-17], the EC50 worked out at 146 nM.

As for `O=C(Nc1nc(-c2cccc(C3CCCC3)c2F)cs1)c1ccc2c(c1)CCC(C(=O)O)C2` (centres unmarked) [Compound B-18], the EC50 was 72 nM. On to `CC(C)Cc1cccc(-c2csc(NC(=O)c3ccc4c(c3)CCC(C(=O)O)C4)n2)c1F` (centres unmarked) [Compound B-19], for which the EC50 was 48 nM. As for `CCCc1cccc(-c2csc(NC(=O)c3ccc4c(c3)CCC(C(=O)O)C4)n2)c1F` (centres unmarked) [Compound B-20], the EC50 was determined as 68 nM. As to `CCCCc1cccc(-c2csc(NC(=O)c3ccc4c(c3)CCC(C(=O)O)C4)n2)c1F` (centres unmarked) [Compound B-21], the concentration giving a half-maximal response (EC50) turned out to be 60 nM. On to `COC(c1cccc(-c2csc(NC(=O)c3ccc4c(c3)CCC(C(=O)O)C4)n2)c1F)C(C)C` (centres unmarked) [Compound B-22], for which the EC50 stood at 64 nM.

Take `COC(c1cccc(-c2csc(NC(=O)c3ccc4c(c3)CCC(C(=O)O)C4)n2)c1F)C1CCCCC1` (centres unmarked) [Compound B-23]: the 50% effective concentration (EC50) is 45 nM. As for `O=C(Nc1nc(-c2cccc(C(F)(F)F)c2)c(F)s1)c1ccc2c(c1)CCC(C(=O)O)C2` (centres unmarked) [Compound B-24], the EC50 was 53 nM. Next, `CCOC(c1cccc(-c2csc(NC(=O)c3ccc4c(c3)CCC(C(=O)O)C4)n2)c1F)C(C)C` (centres unmarked) [Compound B-25]: 38 nM; `CCCCCCCc1cccc(-c2csc(NC(=O)c3ccc4c(c3)CCC(C(=O)O)C4)n2)c1F` (centres unmarked) [Compound B-26]: 25 nM. For `CCCCCCCCc1cccc(-c2csc(NC(=O)c3ccc4c(c3)CCC(C(=O)O)C4)n2)c1F` (centres unmarked) [Compound B-27], the EC50 was determined as 24 nM. As to `CCCCCCCCCCc1cccc(-c2csc(NC(=O)c3ccc4c(c3)CCC(C(=O)O)C4)n2)c1F` (centres unmarked) [Compound B-28], the EC50 worked out at 23 nM. For `CCCc1c(Br)ccc(-c2csc(NC(=O)c3ccc4c(c3)CCC(C(=O)O)C4)n2)c1F` (centres unmarked) [Compound B-29], the EC50 worked out at 49 nM.

Turning to `CCOCCc1cccc(-c2csc(NC(=O)c3ccc4c(c3)CCC(C(=O)O)C4)n2)c1F` (centres unmarked) [Compound B-30], the EC50 stood at 142 nM. Consider `O=C(Nc1nc(-c2cccc(Cc3ccccc3)c2F)cs1)c1ccc2c(c1)CCC(C(=O)O)C2` (centres unmarked) [Compound B-31], for which the 50% effective concentration (EC50) turned out to be 104 nM. As for `CCOC(C)(C)c1cccc(-c2csc(NC(=O)c3ccc4c(c3)CCC(C(=O)O)C4)n2)c1F` (centres unmarked) [Compound B-32], the figure is 96 nM. Regarding `O=C(Nc1nc(-c2ccc(Cl)c(Cl)c2)cs1)c1ccc2cc(C(=O)O)sc2c1` [Compound C-2], the EC50 stood at 71 nM. With `O=C(Nc1nc(-c2ccc(Cl)c(Cl)c2)cs1)c1ccc2oc(C(=O)O)cc2c1` [Compound C-3], the EC50 turned out to be 995 nM. As for `O=C(Nc1nc(-c2ccc(Cl)c(Cl)c2)cs1)c1ccc2cc(C(=O)O)oc2c1` [Compound C-4], the EC50 was 567 nM. For the compound `Cc1c(C(=O)O)oc2ccc(C(=O)Nc3nc(-c4ccc(Cl)c(Cl)c4)cs3)cc12` [Compound C-5], the EC50 was found to be 880 nM.

Take `O=C(Nc1nc(-c2cccc(C(F)(F)F)c2F)cs1)c1ccc2sc(C(=O)O)cc2c1` [Compound D-1]: the EC50 turned out to be 21 nM. Consider `O=C(O)c1ccc2cc(C(=O)Nc3nc(-c4cccc(C(F)(F)F)c4F)cs3)ccc2c1` [Compound D-2], for which the EC50 was 19 nM. Next, `O=C(Nc1nc(-c2cccc(C(F)(F)F)c2F)cs1)c1ccc2c(c1)CC(C(=O)O)C2` [Compound D-3]: 370 nM; `CCOC(=O)C1=Cc2ccc(C(=O)Nc3nc(-c4cccc(C(F)(F)F)c4F)cs3)cc2C1` [Compound D-4]: 250 nM; `O=C(O)C1=Cc2ccc(C(=O)Nc3nc(-c4cccc(C(F)(F)F)c4F)cs3)cc2C1` [Compound D-5]: 210 nM. With `CCOC(=O)C1Cc2cc(C(=O)Nc3nc(-c4cccc(C(F)(F)F)c4F)cs3)ccc2C1=O` [Compound D-6], the EC50 is 2540 nM.

What is called EC50 is the concentration giving half of the maximal effect.
